From patent US9415055B2, “Cyclic amines” (H. Lundbeck A/S, priority 2012, dated 2016)
pIC50: −log10 of the molar value.

Target: P2X7 receptor (Homo sapiens (Human), UniProt Q99572)
Assay: P2X7 FLIPR assay: antagonism of BzATP response in 293 HEK cells stably expressing P2X7 receptor
Assay type: cell-based
Settings: FLIPR fluorescence (Fluo-4), agonist BzATP, 293 HEK cells stably transfected with P2X7 receptor
Method in brief: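 Antagonist IC50 derived from FLIPR Tetra Fluo-4 calcium signal evoked by BzATP. Compound pre-incubation was 30 min at room temperature on P2X7-expressing HEK293 cells, seeded 24 h before in low-serum medium and dye-loaded 30 min at 37 °C then 30 min at RT.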

P2X7 receptor, sequence (Q99572 whole entry): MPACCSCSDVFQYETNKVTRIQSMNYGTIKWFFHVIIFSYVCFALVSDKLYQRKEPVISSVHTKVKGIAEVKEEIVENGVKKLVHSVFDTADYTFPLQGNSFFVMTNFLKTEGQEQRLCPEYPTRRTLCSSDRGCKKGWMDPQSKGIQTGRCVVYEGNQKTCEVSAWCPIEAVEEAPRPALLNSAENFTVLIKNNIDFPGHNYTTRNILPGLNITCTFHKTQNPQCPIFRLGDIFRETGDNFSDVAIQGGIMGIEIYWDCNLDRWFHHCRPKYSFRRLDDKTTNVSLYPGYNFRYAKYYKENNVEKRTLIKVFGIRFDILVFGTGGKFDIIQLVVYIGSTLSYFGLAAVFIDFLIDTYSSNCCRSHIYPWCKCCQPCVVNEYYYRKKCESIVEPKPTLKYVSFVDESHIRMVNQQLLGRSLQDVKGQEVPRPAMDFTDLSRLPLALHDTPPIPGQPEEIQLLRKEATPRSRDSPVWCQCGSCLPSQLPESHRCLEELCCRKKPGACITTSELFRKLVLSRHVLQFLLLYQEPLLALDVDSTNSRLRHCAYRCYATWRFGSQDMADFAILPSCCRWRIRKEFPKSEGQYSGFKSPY

O=C(NCC(c1ccc(C(F)(F)F)nc1)N1CCOCC1)c1cccc(C(F)(F)F)c1Cl (single isomer, unassigned; (+)) [(+)2-chloro-N-[2-morpholino-2-[6-(trifluoromethyl)-3-pyridyl] [(+)2-Chloro-N-[2-morpholino-2-[6-(trifluoromethyl)-3-pyridyl]ethyl]-3-(trifluoromethyl)benzamide]
pIC50: 7.62

COc1ccccc1C(=O)NCC(c1ccc(C(F)(F)F)nc1)N1CCOCC1 (single isomer, unassigned; (+)) [(+)-2-methoxy-N-(2-morpholino-2-(6-(trifluoromethyl)pyridin-] [(+)2-1\4ethoxy-N-[2-morpholin-4-yl-2-(6-trifluoromethyl-pyridin-3-yl)-ethyl]-benzamide]
pIC50: 7.01

O=C(NCC(c1cnc(C2CC2)nc1)N1CCC(F)(F)CC1)c1cccc(Cl)c1Cl (single isomer, unassigned; (-)) [(−)2,3-dichloro-N-[2-(2-cyclopropylpyrimidin-5-yl)-2-(4,4-di] [(−)2,3-dichloro-N-(2-(2-cyclopropylpyrimidin-5-yl)-2-(4,4-difluoropiperidin-1-yl)ethyl)benzamide]
pIC50: 8.46

Cc1ncc(C(CNC(=O)c2cccc(Cl)c2Cl)N2CCCCC2)cn1 (single isomer, unassigned; (-)) [(−)2,3-dichloro-N-[2-(2-methylpyrimidin-5-yl)-2-(1-piperidyl] [(−)2,3-dichloro-N-(2-(2-methylpyrimidin-5-yl)-2-(piperidin-1-yl)ethyl)benzamide]
pIC50: 7.68

Cc1ncc(C(CNC(=O)c2cccc(Cl)c2Cl)N2CCOCC2)cn1 (single isomer, unassigned; (-)) [(−)2,3-dichloro-N-[2-(2-methylpyrimidin-5-yl)-2-morpholino-e] [(−)2,3-Dichloro-N-[2-(2-methylpyrimidin-5-yl)-2-morpholino-ethyl]benzamide]
pIC50: 7.57

Cn1cc(C(CNC(=O)c2cc(F)cc(Cl)c2Cl)N2CCC(F)(F)CC2)cn1 (single isomer, unassigned; (-)) [(−)2,3-dichloro-N-[2-(4,4-difluoro-1-piperidyl)-2-(1-methylp] [(−)2,3-dichloro-5-fluoro-N-(2-(4,4-difluoropiperidin-1-yl)-2-(1-methyl-1H-pyrazol-4-yl)ethyl)benzamide]
pIC50: 7.59

Cn1cc(C(CNC(=O)c2cccc(Cl)c2Cl)N2CCC(F)(F)CC2)cn1 (single isomer, unassigned; (-)) [(−)2,3-dichloro-N-[2-(4,4-difluoro-1-piperidyl)-2-(1-methylp] [(−)2,3-dichloro-N-(2-(4,4-difluoropiperidin-1-yl)-2-(1-methyl-1H-pyrazol-4-yl)ethyl)benzamide]
pIC50: 7.60

CCc1ncc(C(CNC(=O)c2cccc(Cl)c2Cl)N2CCC(F)(F)CC2)cn1 (single isomer, unassigned; (-)) [(−)2,3-dichloro-N-[2-(4,4-difluoro-1-piperidyl)-2-(2-ethylpy] [(−)2,3-dichloro-N-(2-(4,4-difluoropiperidin-1-yl)-2-(2-ethylpyrimidin-5-yl)ethyl)benzamide]
pIC50: 8.31

Cc1ncc(C(CNC(=O)c2cc(F)cc(Cl)c2Cl)N2CCC(F)(F)CC2)cn1 (single isomer, unassigned; (-)) [(−)2,3-dichloro-N-[2-(4,4-difluoro-1-piperidyl)-2-(2-methylp] [(−)2,3-dichloro-5-fluoro-N-(2-(4,4-difluoropiperidin-1-yl)-2-(2-methylpyrimidin-5-yl)ethyl)benzamide]
pIC50: 7.85

Cc1ncc(C(CNC(=O)c2cccc(Cl)c2Cl)N2CCC(F)(F)CC2)cn1 (single isomer, unassigned; (-)) [(−)2,3-dichloro-N-[2-(4,4-difluoro-1-piperidyl)-2-(2-methylp] [(−)2,3-dichloro-N-(2-(4,4-difluoropiperidin-1-yl)-2-(2-methylpyrimidin-5-yl)ethyl)benzamide]
pIC50: 8.24

O=C(NCC(c1cnc(C(F)(F)F)nc1)N1CCC(F)(F)CC1)c1cc(F)cc(Cl)c1Cl (single isomer, unassigned; (-)) [(−)2,3-dichloro-N-[2-(4,4-difluoro-1-piperidyl)-2-[2-(triflu] [(−)2,3-dichloro-5-fluoro-N-(2-(4,4-difluoropiperidin-1-yl)-2-(2-(trifluoromethyl)pyrimidin-5-yl)ethyl)benzamide]
pIC50: 8.66

Cc1ncc(C(CNC(=O)c2cccc(Cl)c2Cl)N2CCC(F)CC2)cn1 (single isomer, unassigned; (-)) [(−)2,3-dichloro-N-[2-(4-fluoro-1-piperidyl)-2-(2-methylpyrim] [(−)2,3-dichloro-N-(2-(4-fluoropiperidin-1-yl)-2-(2-methylpyrimidin-5-yl)ethyl)benzamide]
pIC50: 7.85

O=C(NCC(c1cnc(C(F)(F)F)nc1)N1CCC(F)CC1)c1cccc(Cl)c1Cl (single isomer, unassigned; (-)) [(−)2,3-dichloro-N-[2-(4-fluoro-1-piperidyl)-2-[2-(trifluorom] [(−)2,3-dichloro-N-(2-(4-fluoropiperidin-1-yl)-2-(2-(trifluoromethyl)pyrimidin-5-yl)ethyl)benzamide]
pIC50: 8.33

O=C(NCC(c1cnc(C(F)F)nc1)N1CCOCC1)c1cccc(Cl)c1Cl (single isomer, unassigned; (-)) [(−)2,3-dichloro-N-[2-[2-(difluoromethyl)pyrimidin-5-yl]-2-mo] [(−)2,3-dichloro-N-(2-(2-(difluoromethyl)pyrimidin-5-yl)-2-morpholinoethyl)benzamide]
pIC50: 8.02

O=C(NCC(c1ccc(C(F)F)nc1)N1CCC(F)(F)CC1)c1cccc(Cl)c1Cl (single isomer, unassigned; (-)) [(−)2,3-dichloro-N-[2-[6-(difluoromethyl)-3-pyridyl]-2-(4,4-d] [(−)2,3-dichloro-N-(2-(2-(difluoromethyl)pyridin-5-yl)-2-(4,4-difluoropiperidin-1-yl)ethyl)benzamide]
pIC50: 8.38

O=C(NCC(c1cnc(C(F)(F)F)nc1)N1CCOCC1)c1cccc(Cl)c1Cl (single isomer, unassigned; (-)) [(−)2,3-dichloro-N-[2-morpholino-2-[2-(trifluoromethyl)pyrimi] [(−)2,3-Dichloro-N-[2-morpholino-2-[2-(trifluoromethyl)pyrimidin-5-yl]ethyl]benzamide]
pIC50: 8.49

O=C(NCC(c1ccc(C(F)(F)F)nc1)N1CCOCC1)c1cccc(Cl)c1Cl (single isomer, unassigned; (-)) [(−)2,3-dichloro-N-[2-morpholino-2-[6-(trifluoromethyl)-3-pyr] [(−)2,3-Dichloro-N-[2-morpholino-2-[6-(trifluoromethyl)-3-pyridyl]ethyl]benzamide]
pIC50: 8.70

O=C(NCC(c1cnc(C(F)(F)F)nc1)N1CCC(F)(F)CC1)c1c(F)cc(Cl)cc1Cl (single isomer, unassigned; (-)) [(−)2,4-dichloro-N-[2-(4,4-difluoro-1-piperidyl)-2-[2-(triflu] [(−)2,4-dichloro-6-fluoro-N-(2-(4,4-difluoropiperidin-1-yl)-2-(2-(trifluoromethyl)pyrimidin-5-yl)ethyl)benzamide]
pIC50: 8.19

O=C(NCC(c1cnc(C(F)(F)F)nc1)N1CCC(F)(F)CC1)c1ccc(Cl)cc1Cl (single isomer, unassigned; (-)) [(−)2,4-dichloro-N-[2-(4,4-difluoro-1-piperidyl)-2-[2-(triflu] [(−)2,4-dichloro-N-(2-(4,4-difluoropiperidin-1-yl)-2-(2-(trifluoromethyl)pyrimidin-5-yl)ethyl)benzamide]
pIC50: 8.19

Cn1cc(C(CNC(=O)c2c(Cl)cccc2Cl)N2CCC(F)(F)CC2)cn1 (single isomer, unassigned; (-)) [(−)2,6-dichloro-N-[2-(4,4-difluoro-1-piperidyl)-2-(1-methylp] [(−)2,6-dichloro-N-(2-(4,4-difluoropiperidin-1-yl)-2-(1-methyl-1H-pyrazol-4-yl)ethyl)benzamide]
pIC50: 7.36

CCc1ncc(C(CNC(=O)c2c(Cl)cccc2Cl)N2CCC(F)(F)CC2)cn1 (single isomer, unassigned; (-)) [(−)2,6-dichloro-N-[2-(4,4-difluoro-1-piperidyl)-2-(2-ethylpy] [(−)2,6-dichloro-N-(2-(4,4-difluoropiperidin-1-yl)-2-(2-ethylpyrimidin-5-yl)ethyl)benzamide]
pIC50: 7.57

Cc1ncc(C(CNC(=O)c2c(Cl)ccc(F)c2Cl)N2CCC(F)(F)CC2)cn1 (single isomer, unassigned; (-)) [(−)2,6-dichloro-N-[2-(4,4-difluoro-1-piperidyl)-2-(2-methylp] [(−)2,6-dichloro-5-fluoro-N-(2-(4,4-difluoropiperidin-1-yl)-2-(2-methylpyrimidin-5-yl)ethyl)benzamide]
pIC50: 7.43

Cc1ncc(C(CNC(=O)c2c(Cl)cccc2Cl)N2CCC(F)(F)CC2)cn1 (single isomer, unassigned; (-)) [(−)2,6-dichloro-N-[2-(4,4-difluoro-1-piperidyl)-2-(2-methylp] [(−)2,6-dichloro-N-(2-(4,4-difluoropiperidin-1-yl)-2-(2-methylpyrimidin-5-yl)ethyl)benzamide]
pIC50: 7.66

O=C(NCC(c1cnc(C(F)(F)F)nc1)N1CCC(F)(F)CC1)c1c(Cl)cc(F)cc1Cl (single isomer, unassigned; (-)) [(−)2,6-dichloro-N-[2-(4,4-difluoro-1-piperidyl)-2-[2-(triflu] [(−)2,6-dichloro-4-fluoro-N-(2-(4,4-difluoropiperidin-1-yl)-2-(2-(trifluoromethyl)pyrimidin-5-yl)ethyl)benzamide]
pIC50: 7.82

O=C(NCC(c1cnc(C(F)(F)F)nc1)N1CCC(F)(F)CC1)c1c(Cl)ccc(F)c1Cl (single isomer, unassigned; (-)) [(−)2,6-dichloro-N-[2-(4,4-difluoro-1-piperidyl)-2-[2-(triflu] [(−)2,6-dichloro-5-fluoro-N-(2-(4,4-difluoropiperidin-1-yl)-2-(2-(trifluoromethyl)pyrimidin-5-yl)ethyl)benzamide]
pIC50: 8.31
